Experimental data as given in ChEMBL document CHEMBL4334471, “Discovery of 1,8-disubstituted-[1,2,3]triazolo[4,5-c]quinoline derivatives as a new class of Hippo signaling pathway inhibitors” (Bioorg Med Chem Lett, 2019).

How the values were obtained:
[1] = biological target: Vascular endothelial growth factor receptor 1 (Homo sapiens) (UniProt P17948); experiment: Inhibition of recombinant human FLT1 (783 to end residues) assessed as residual activity at 10 uM using KKKSPGEYVNIEF as substrate at 40 mins in presence of [gamma-33ATP] by scintillation counting based radiometry assay relative to control
[2] = system: Angiopoietin-1 receptor (Homo sapiens), Q02763 [Q939H,Q940H]; experiment: Inhibition of recombinant human TIE2 Q939H/Q940H mutant (771 to end residues) assessed as residual activity at 10 uM using EFPIYDFLPAKKK as substrate incubated for 40 mins in presence of [gamma33P]ATP by scintillation counting based radiometry assay relative to control
[3] = biological target: Tau-tubulin kinase 2 (Homo sapiens) (UniProt Q6IQ55); experiment: Inhibition of recombinant human TTBK2 (1 to 331 residues) assessed as residual activity at 10 uM using casein as substrate incubated for 40 mins in presence of [gamma33P]ATP by scintillation counting based radiometry assay relative to control
[4] = system: Proto-oncogene tyrosine-protein kinase receptor Ret (Homo sapiens), P07949 [V804M]; experiment: Inhibition of recombinant human Ret V804M mutant (658 to end residues) assessed as residual activity at 10 uM using KKKVSRSGLYRSPSMPENLNRPR as substrate incubated for 40 mins in presence of [gamma33P]ATP by scintillation counting based radiometry assay relative to control
Chain of Proto-oncogene tyrosine-protein kinase receptor Ret (Homo sapiens), P07949 [V804M] (P07949 whole entry V804M): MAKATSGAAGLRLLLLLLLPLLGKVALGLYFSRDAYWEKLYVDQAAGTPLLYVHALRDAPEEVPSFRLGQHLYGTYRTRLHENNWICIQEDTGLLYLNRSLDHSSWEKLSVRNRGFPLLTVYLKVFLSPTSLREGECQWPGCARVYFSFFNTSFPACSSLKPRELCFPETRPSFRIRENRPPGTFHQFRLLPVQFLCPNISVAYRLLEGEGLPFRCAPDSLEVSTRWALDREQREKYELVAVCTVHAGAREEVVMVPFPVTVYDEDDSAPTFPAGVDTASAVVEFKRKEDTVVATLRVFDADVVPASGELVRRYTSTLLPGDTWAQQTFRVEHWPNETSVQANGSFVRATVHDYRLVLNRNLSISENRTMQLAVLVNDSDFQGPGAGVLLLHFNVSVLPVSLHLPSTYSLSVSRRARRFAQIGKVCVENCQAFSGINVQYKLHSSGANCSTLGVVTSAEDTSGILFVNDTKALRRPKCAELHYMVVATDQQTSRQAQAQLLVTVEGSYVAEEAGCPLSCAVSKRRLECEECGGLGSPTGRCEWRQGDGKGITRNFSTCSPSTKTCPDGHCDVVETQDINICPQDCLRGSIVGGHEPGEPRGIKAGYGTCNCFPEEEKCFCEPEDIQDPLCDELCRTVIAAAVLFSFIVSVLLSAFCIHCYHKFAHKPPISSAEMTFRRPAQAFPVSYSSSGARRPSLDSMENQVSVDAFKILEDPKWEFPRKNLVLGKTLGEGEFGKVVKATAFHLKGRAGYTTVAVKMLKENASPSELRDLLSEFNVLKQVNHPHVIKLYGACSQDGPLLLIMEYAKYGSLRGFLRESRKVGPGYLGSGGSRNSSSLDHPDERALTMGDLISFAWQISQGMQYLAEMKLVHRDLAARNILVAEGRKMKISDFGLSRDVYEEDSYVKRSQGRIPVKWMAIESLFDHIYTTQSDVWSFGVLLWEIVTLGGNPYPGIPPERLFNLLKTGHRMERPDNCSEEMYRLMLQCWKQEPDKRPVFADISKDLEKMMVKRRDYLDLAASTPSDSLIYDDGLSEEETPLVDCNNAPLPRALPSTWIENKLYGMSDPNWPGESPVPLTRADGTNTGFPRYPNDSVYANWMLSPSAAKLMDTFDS

A549 = experiment: Upregulation of CYR61 in human A549 cells incubated for 24 hrs by qRT-PCR analysis; assay type: functional, cell-based
[5] = system: CDK18/Cyclin Y (Homo sapiens), Q07002+Q8ND76 [T166M]; experiment: Inhibition of recombinant full length human CDK18/cyclinY T166M mutant assessed as residual activity at 10 uM using YRRAAVPPSPSLS as substrate incubated for 40 mins in presence of [gamma-33ATP] by scintillation counting based radiometry assay relative to control; assay type: protein-complex assay
[6] = biological target: Dual specificity mitogen-activated protein kinase kinase 3 (Homo sapiens) (UniProt P46734); experiment: Inhibition of recombinant human MKK3 assessed as residual activity at 10 uM by scintillation counting based radiometry assay relative to control
[7] = biological target: Serine/threonine-protein kinase 3 (Homo sapiens) (UniProt Q13188); experiment: Inhibition of recombinant human MST2 (2 to end residues) assessed as residual activity at 10 uM using myelin basic protein as substrate measured after 40 mins in presence of [gamma33P]ATP by scintillation counting based radiometry assay relative to control
Chain of Serine/threonine-protein kinase 3 (Homo sapiens) (Q13188 whole entry): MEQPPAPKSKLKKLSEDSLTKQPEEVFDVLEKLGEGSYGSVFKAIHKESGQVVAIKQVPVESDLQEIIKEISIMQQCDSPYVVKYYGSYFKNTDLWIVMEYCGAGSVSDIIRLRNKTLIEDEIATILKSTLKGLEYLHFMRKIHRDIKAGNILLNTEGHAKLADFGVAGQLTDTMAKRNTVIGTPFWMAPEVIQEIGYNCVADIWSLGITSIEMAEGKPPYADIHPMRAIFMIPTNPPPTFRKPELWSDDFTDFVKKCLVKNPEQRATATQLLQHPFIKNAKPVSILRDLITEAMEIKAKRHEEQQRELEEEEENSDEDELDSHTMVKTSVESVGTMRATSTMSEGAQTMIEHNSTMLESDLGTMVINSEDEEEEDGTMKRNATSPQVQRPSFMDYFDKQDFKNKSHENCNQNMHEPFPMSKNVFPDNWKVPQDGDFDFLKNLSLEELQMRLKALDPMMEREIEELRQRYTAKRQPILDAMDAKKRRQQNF

[8] = biological target: Cyclin-dependent kinase 1/cyclin B1 (Homo sapiens) (UniProt P06493+P14635); experiment: Inhibition of recombinant full length human CDK1/CyclinB assessed as residual activity at 10 uM using Histone H1 as substrate incubated for 40 mins in presence of [gamma-33ATP] by scintillation counting based radiometry assay relative to control; assay type: protein-complex assay
Chain of Cyclin-dependent kinase 1/cyclin B1 (Homo sapiens) (P06493 whole entry, looked up): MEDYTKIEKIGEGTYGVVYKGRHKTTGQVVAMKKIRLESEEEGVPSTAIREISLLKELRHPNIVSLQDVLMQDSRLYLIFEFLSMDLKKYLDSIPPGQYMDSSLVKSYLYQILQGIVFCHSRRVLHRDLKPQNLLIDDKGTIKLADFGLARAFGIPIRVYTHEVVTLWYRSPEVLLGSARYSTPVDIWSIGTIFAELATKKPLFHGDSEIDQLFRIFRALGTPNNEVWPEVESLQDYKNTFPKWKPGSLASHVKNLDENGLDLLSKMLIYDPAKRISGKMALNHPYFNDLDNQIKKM
Chain of Cyclin-dependent kinase 1/cyclin B1 (Homo sapiens) (P14635 whole entry, looked up): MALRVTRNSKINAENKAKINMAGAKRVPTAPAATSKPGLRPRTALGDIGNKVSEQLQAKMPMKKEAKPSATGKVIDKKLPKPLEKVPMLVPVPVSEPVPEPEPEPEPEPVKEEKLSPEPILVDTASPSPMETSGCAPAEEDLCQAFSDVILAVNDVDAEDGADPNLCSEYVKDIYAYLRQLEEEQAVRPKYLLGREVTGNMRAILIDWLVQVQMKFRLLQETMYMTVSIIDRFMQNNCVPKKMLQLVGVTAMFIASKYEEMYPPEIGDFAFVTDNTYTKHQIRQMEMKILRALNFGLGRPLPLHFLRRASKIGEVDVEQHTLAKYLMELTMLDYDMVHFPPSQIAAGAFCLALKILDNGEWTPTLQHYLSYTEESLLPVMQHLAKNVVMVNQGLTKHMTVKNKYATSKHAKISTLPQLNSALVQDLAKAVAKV

[9] = biological target: Inhibitor of nuclear factor kappa-B kinase subunit beta (Homo sapiens) (UniProt O14920); experiment: Inhibition of full length human IKKbeta assessed as residual activity at 10 uM using peptide as substrate after 40 mins by [gamma-33ATP] radiometric assay relative to control
[10] = biological target: Calcium/calmodulin-dependent protein kinase type 1D (Homo sapiens) (UniProt Q8IU85); experiment: Inhibition of recombinant full length human CaMK1delta assessed as residual activity at 10 uM using […] incubated for 40 mins in presence of [gamma-33ATP] by scintillation counting based radiometry assay relative to control
Chain of Calcium/calmodulin-dependent protein kinase type 1D (Homo sapiens) (Q8IU85 whole entry, looked up): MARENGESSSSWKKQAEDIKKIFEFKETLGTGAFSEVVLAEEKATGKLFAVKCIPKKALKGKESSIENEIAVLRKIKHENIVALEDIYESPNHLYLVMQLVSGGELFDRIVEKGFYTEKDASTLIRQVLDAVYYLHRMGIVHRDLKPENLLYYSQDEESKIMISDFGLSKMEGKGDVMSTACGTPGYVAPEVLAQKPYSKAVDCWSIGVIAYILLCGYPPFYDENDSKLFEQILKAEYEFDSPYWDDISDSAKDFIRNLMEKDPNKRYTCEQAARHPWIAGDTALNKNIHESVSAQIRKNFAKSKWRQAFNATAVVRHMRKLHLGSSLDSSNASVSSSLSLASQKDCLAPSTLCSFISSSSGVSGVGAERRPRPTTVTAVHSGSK

[11] = biological target: Serine/threonine-protein kinase Nek7 (Homo sapiens) (UniProt Q8TDX7); experiment: Inhibition of recombinant human NEK7 (2 to end residues) assessed as residual activity at 10 uM using FLAKSFGSPNRAYKK as substrate measured after 40 mins in presence of [gamma33P]ATP by scintillation counting based radiometry assay relative to control
Chain of Serine/threonine-protein kinase Nek7 (Homo sapiens) (Q8TDX7 whole entry, looked up, the tested form may be a part, canonical isoform): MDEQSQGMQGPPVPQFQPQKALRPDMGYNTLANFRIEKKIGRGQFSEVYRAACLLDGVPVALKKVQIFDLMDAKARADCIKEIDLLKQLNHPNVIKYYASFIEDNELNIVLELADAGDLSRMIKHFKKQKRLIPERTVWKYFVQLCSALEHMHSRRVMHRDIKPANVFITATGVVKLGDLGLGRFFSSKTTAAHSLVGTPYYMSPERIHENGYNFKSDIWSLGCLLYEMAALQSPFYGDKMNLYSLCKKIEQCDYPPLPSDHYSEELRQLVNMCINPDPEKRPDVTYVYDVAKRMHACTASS

[12] = system: Phosphorylase b kinase gamma catalytic chain, liver/testis isoform (Homo sapiens), P15735 [F290L]; experiment: Inhibition of recombinant human PhKgamma2 F290L mutant (1 to 301 residues) assessed as residual activity at 10 uM using KKLNRTLSFAEPG as substrate incubated for 40 mins in presence of [gamma33P]ATP by scintillation counting based radiometry assay relative to control
Chain of Phosphorylase b kinase gamma catalytic chain, liver/testis isoform (Homo sapiens), P15735 [F290L] (P15735 whole entry F290L, the tested form may be a part, canonical isoform): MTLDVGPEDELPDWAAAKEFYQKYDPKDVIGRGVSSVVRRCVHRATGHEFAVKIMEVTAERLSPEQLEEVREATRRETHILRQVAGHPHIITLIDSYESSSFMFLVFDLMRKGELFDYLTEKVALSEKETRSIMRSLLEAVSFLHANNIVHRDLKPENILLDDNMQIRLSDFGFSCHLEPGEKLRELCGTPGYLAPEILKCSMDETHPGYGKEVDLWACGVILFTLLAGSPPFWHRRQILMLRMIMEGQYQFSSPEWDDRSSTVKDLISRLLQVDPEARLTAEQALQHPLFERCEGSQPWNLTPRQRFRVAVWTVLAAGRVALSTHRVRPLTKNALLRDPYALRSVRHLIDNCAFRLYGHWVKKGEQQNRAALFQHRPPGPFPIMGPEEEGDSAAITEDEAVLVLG

[13] = biological target: MAP kinase-activated protein kinase 3 (Homo sapiens) (UniProt Q16644); experiment: Inhibition of recombinant human MAPKAPK3 (2 to end residues) assessed as residual activity at 10 uM using KKLNRTLSVA as substrate incubated for 40 mins in presence of [gamma-33ATP by scintillation counting based radiometry assay relative to control
Chain of MAP kinase-activated protein kinase 3 (Homo sapiens) (Q16644 whole entry, looked up, canonical isoform): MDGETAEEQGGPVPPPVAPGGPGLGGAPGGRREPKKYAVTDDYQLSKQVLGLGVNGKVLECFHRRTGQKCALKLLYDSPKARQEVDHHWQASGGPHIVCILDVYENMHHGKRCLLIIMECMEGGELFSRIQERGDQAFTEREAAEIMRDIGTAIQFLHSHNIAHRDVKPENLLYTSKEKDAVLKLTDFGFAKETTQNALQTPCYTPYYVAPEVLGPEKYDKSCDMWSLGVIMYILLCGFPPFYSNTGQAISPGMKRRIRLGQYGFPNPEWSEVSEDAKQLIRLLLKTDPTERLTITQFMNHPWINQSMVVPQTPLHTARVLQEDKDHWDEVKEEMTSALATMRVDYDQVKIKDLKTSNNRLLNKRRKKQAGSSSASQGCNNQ

[14] = biological target: Casein kinase I isoform gamma-1 (Homo sapiens) (UniProt Q9HCP0); experiment: Inhibition of recombinant human CK1gamma1 assessed as residual activity at 10 uM using KRRRALS(p)VASLPGL as substrate incubated for 40 mins in presence of [gamma-33ATP] by scintillation counting based radiometry assay relative to control
[15] = biological target: AP2-associated protein kinase 1 (Homo sapiens) (UniProt Q2M2I8); experiment: Inhibition of human AAK1 assessed as residual activity at 10 uM using peptide as substrate incubated for 120 mins in presence of [gamma-33ATP] by scintillation counting based radiometry assay relative to control
Chain of AP2-associated protein kinase 1 (Homo sapiens) (Q2M2I8 whole entry, looked up): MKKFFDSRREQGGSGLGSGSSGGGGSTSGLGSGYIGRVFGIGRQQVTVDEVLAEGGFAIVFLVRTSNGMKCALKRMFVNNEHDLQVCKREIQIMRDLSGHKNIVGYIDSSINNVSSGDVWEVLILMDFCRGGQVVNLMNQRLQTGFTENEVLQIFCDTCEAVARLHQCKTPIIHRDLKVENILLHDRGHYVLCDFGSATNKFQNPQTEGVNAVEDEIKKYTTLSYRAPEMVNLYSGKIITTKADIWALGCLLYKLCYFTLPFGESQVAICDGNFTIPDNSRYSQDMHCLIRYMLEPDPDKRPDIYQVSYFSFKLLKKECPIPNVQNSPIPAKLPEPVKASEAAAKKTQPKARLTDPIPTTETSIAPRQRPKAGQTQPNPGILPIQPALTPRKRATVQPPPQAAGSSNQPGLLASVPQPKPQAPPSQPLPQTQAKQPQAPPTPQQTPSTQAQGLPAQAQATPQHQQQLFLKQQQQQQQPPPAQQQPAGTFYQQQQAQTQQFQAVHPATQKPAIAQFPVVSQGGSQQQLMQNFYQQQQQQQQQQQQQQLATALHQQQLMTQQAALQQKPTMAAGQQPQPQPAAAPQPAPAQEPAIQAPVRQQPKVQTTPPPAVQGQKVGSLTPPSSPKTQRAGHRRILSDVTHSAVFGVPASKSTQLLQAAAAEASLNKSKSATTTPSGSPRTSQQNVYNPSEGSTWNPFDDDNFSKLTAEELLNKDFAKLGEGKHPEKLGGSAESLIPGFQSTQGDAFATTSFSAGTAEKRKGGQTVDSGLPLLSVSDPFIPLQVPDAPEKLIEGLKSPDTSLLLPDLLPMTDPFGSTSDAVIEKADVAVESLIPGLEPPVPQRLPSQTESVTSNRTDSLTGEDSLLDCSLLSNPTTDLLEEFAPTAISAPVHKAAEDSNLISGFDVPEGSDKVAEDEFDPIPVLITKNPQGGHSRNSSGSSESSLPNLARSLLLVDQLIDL

[16] = biological target: G protein-coupled receptor kinase 6 (Homo sapiens) (UniProt P43250); experiment: Inhibition of recombinant full length human GRK6 assessed as residual activity at 10 uM using casein as substrate at 40 mins in presence of [gamma-33ATP] by scintillation counting based radiometry assay relative to control
[17] = system: Angiopoietin-1 receptor (Homo sapiens), Q02763 [Q939H,Q940H,Y897S]; experiment: Inhibition of recombinant human TIE2 Q939H/Q940H/Y897S mutant (771 to end residues) assessed as residual activity at 10 uM using EFPIYDFLPAKKK as substrate incubated for 40 mins in presence of [gamma33P]ATP by scintillation counting based radiometry assay relative to control
[18] = biological target: Serine/threonine-protein kinase PLK2 (Homo sapiens) (UniProt Q9NYY3); experiment: Inhibition of recombinant human SNK (65 to 409 residues) assessed as residual activity at 10 uM using casein as substrate incubated for 40 mins in presence of [gamma33P]ATP by scintillation counting based radiometry assay relative to control
[19] = biological target: SRSF protein kinase 3 (Homo sapiens) (UniProt Q9UPE1); experiment: Inhibition of recombinant full-length human MSSK1 assessed as residual activity at 10 uM using ERMRPRKRQGSVRRRV as substrate measured after 40 mins in presence of [gamma33P]ATP by scintillation counting based radiometry assay relative to control
[20] = system: Platelet-derived growth factor receptor alpha (Homo sapiens), P16234 [D842V]; experiment: Inhibition of human PDGFRalpha D842V mutant (550 to end residues) assessed as residual activity at 10 uM using poly(Glu, Tyr) 4:1 as substrate measured after 40 mins in presence of [gamma33P]ATP by scintillation counting based radiometry assay relative to control

C[C@@H](c1ccccc1)n1nnc2cnc3ccc(-c4cnc5[nH]ccc5c4)cc3c21 was tested. Which Activity [1] did it give?
The Activity was 49%.

What about the Activity [2] of the same compound?
The Activity was 50%.

What about the Activity [3] of the same compound?
The Activity was 87%.

And the Activity [4]?
Its Activity is 69%.

And the Activity (A549)?
The Activity was “Dose-dependent effect”.

What about the Activity [5] of the same compound?
The Activity was 94%.

And the Activity [6]?
The Activity was 115%.

And the Activity [7]?
The Activity was 57%.

What about the Activity [8] of the same compound?
Its Activity is 63%.

What about the Activity [9] of the same compound?
Its Activity is 96%.

And the Activity [10]?
The Activity was 43%.

And the Activity [11]?
Its Activity is 119%.

And the Activity [12]?
The Activity was 65%.

What about the Activity [13] of the same compound?
Its Activity is 76%.

What about the Activity [14] of the same compound?
Its Activity is 48%.

And the Activity [15]?
Its Activity is 78%.

What about the Activity [16] of the same compound?
The Activity was 96%.

What about the Activity [17] of the same compound?
Its Activity is 81%.

And the Activity [18]?
The Activity was 90%.

What about the Activity [19] of the same compound?
Its Activity is 69%.

What about the Activity [20] of the same compound?
Its Activity is 4%.
